Reference: patent US9663488B2, “Metalloenzyme inhibitor compounds” (Viamet Pharmaceuticals, Inc., priority 2013, dated 2017)
Where a name gives a salt, the structure may show the parent alone.

Assays:
[1] = test system: Pseudomonas aeruginosa (ATCC 27853); test: Minimum Inhibitory Concentration (MIC), CLSI broth microdilution; type: cell-based; conditions: ATCC27853, 35±1° C., 18±2 h, concentration which completely inhibited growth
Procedure: A. Minimum Inhibitory Concentration (MIC)
Minimum Inhibitory Concentrations (MICS) were determined for Escherichia coli (American Type Culture Collection (ATCC) 25922) and Pseudomonas aeruginosa (ATCC 27853) in accordance with the Clinical and Laboratory Standards Institute (CLSI). Serial, one-half dilutions of compounds were prepared in 96-well dilution blocks in cation-adjusted Mueller-Hinton Broth (MBH)+2% DMSO and transferred to 96-well assay plates in duplicate. Cell suspensions of E. coli and P. aeruginosa were prepared in MHB and added to each well at concentrations of approximately 1.2×10^6 and 3.3×10^6 colony-forming-units per milliliter (cfu/mL), respectively. The inoculated plates were incubated at 35±1° C. for 18±2 h. At the completion of incubation the wells of each plate were evaluated visually for the presence of growth. […] In addition to visual evaluation, optical densities were determined using a Tecan Infinite M200 microplate reader measuring absorbance at 600 nm.

[2] = biological target: T1, LpxC (Pseudomonas aeruginosa, UniProt P47205); test: Inhibition of LpxC Enzyme; type: biochemical; conditions: LpxC enzyme is pseudomonas construct
T1 sequence (P47205 1-303): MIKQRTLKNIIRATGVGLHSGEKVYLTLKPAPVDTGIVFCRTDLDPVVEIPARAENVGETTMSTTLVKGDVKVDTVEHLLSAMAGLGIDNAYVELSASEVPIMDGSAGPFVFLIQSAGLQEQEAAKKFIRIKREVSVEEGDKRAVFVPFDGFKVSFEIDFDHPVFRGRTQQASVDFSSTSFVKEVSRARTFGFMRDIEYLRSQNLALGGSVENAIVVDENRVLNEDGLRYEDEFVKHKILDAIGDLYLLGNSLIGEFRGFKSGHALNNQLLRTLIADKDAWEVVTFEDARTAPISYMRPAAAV
Procedure: [The source words this procedure for another target and reports this target under the same test.] A. Inhibition of LpxC Enzyme
Test compounds were dissolved in 100% DMSO @ 10 mM. Then a series of dilutions were done with 100% DMSO, these were the first intermediate dilutions. Individual 100% DMSO dilutions were diluted independently to another intermediate dilution using assay buffer (bringing the DMSO concentration to 5%). Finally, 10 μl of all these 5% intermediate dilutions were used directly in the 50 μl reaction, making the final DMSO testing concentration at 1%. The enzymatic reactions were conducted in duplicate at room temperature for 1 hour in a 50 μL mixture containing MMP-2 assay buffer, 1 μM Mca-PLGLDpaAR, 10 uL MPP-2 enzyme (1.8 ng) and 10 μL of a test compound. All the reactions were conducted using 10 μl MMP-2 assay buffer in place of enzyme, to detect just the background fluorescence from the compound. After enzymatic reactions, fluorescence intensity was measured at an excitation of 328 nm and an emission of 393 nm using a Tecan Infinite M1000™ microplate reader.

IC50 [2] [nM] | Structure (SMILES) | MIC [1] [µg/mL]
5 | CS(=O)(=O)Nc1cc2nc(-c3ccc(-c4ccc(-c5cc(CO)on5)cc4)cc3)cc(C(=O)NN)c2cn1 [Example 327, N-(4-(hydrazinecarbonyl)-2-(4′-(5-(hydroxymethyl)isoxazol-3-yl)-[1,1′-biphenyl]-4-yl)-1,6-naphthyridin-7-yl) methanesulfonamide hydrochloride] | 
2 | CS(=O)(=O)NCc1cc(-c2ccc(-c3ccc(-c4cc(C(=O)NN)c5cnccc5n4)cc3)cc2)no1 [Example 35, N-((3-(4′-(4-(hydrazinecarbonyl)-1,6-naphthyridin-2-yl)-[1,1′-biphenyl]-4-yl)isoxazol-5-yl)methyl)methanesulfonamide] | 
2 | CS(=O)(=O)Nc1cc2nc(-c3ccc(C#Cc4ccc(C(=O)N5CCCC[C@H]5C(=O)O)cc4Cl)cc3)cc(C(=O)NN)c2cn1 [Example 309, (S)-1-(3-chloro-(4-((4-(4-(hydrazinecarbonyl)-7-(methylsulfonamido)-1,6-naphthyridin-2-yl)phenyl)ethynyl)benzoyl)piperidine-2-carboxylic acid hydrochloride] | 
4 | NNC(=O)c1cc(-c2ccc(-c3ccc(-c4cc(C(=O)N5CCC[C@@H]5C(=O)O)on4)cc3)cc2)nc2ccncc12 [Example 31, (R)-1-(3-(4′-(4-(hydrazinecarbonyl)-1,6-naphthyridin-2-yl)-[1,1′-biphenyl]-4-yl)isoxazole-5-carbonyl)pyrrolidine-2-carboxylic acid hydrochloride] | 
4 | O=C(O)CCCOc1ccc(-c2ccc(-c3cc(N4C(=O)CNC4=S)c4cnccc4n3)cc2)cc1 [Example 83, 4-((4′-(4-(5-oxo-2-thioxoimidazolidin-1-yl)-1,6-naphthyridin-2-yl)-[1,1′-biphenyl]-4-yl)oxy)butanoic acid] | 
2 | NNC(=O)c1cc(-c2ccc(-c3ccc(-c4cc(CO)on4)cc3)cc2)nc2cc(NS(=O)(=O)CC(=O)O)ncc12 [Example 328, 2-(N-(4-(hydrazinecarbonyl)-2-(4′-(5-(hydroxymethyl)isoxazol-3-yl)-[1,1′-biphenyl]-4-yl)-1,6-naphthyridin-7-yl)sulfamoyl)acetic acid hydrochloride] | 
5 | NNC(=O)c1cc(-c2ccc(C#Cc3ccc(NS(=O)(=O)C(F)(F)F)cc3)cc2)nc2ccncc12 [Example 185, 1,1,1-trifluoro-N-(4-((4-(4-(hydrazinecarbonyl)-1,6-naphthyridin-2-yl)phenyl)ethynyl)phenyl)methanesulfonamide] | 
18 | CCC(C)C(NC(=O)c1ccc(C#Cc2ccc(-c3cc(C(=O)NN)c4cnccc4n3)cc2)cc1)C(=O)O (racemic) [Example 172, 2-(4-((4-(4-(hydrazinecarbonyl)-1,6-naphthyridin-2-yl)phenyl)ethynyl)benzamido)-3-methylpentanoic acid] | 
6 | NNC(=O)c1cc(-c2ccc(-c3ccc(OCCNS(=O)(=O)C(F)(F)F)cc3)cc2)nc2ccncc12 [Example 101] | 
8 | NNC(=O)c1cc(-c2ccc(-c3ccc(-c4cc(C(=O)N5CCCCC5C(=O)O)on4)cc3)cc2)nc2ccncc12 (racemic) [Example 115, 1-(3-(4′-(4-(hydrazinecarbonyl)-1,6-naphthyridin-2-yl)-[1,1′-biphenyl]-4-yl)isoxazole-5-carbonyl)piperidine-2-carboxylic acid] | 

Structure (SMILES) | IC50 [2] [nM] | MIC [1] [µg/mL]
NNC(=O)c1cc(-c2ccc(C#Cc3ccc(C(=O)N4CCCC[C@H]4C(=O)O)cc3Cl)cc2)nc2ccncc12 [Example 202, (S)-1-(3-chloro-4-((4-(4-(hydrazinecarbonyl)-1,6-naphthyridin-2-yl)phenyl)ethynyl)benzoyl)piperidine-2-carboxylic acid hydrochloride] | 2 | 128
O=C(NO)[C@@H](Cc1ccc2ccccc2c1)NS(=O)(=O)c1ccc2ccccc2c1 [BB-78485] | 20 | 
